Results reported in article PMC7044277 (Nature Communications, 2020).
Several values for one entry are separate records, joined by “and”; a condition that tells them apart may be missing. Equal values may be shown once.

Tests used:
Format in all cases: cell-based
320 non-olfactory GPCRs [1] = biological target: T1, 320 non-olfactory GPCRs (Homo sapiens, UniProt P08912)
T1 construct: expressed in transfected cells; host or cells: HTLA cells

320 non-olfactory GPCRs [2] = biological target: T2, 320 non-olfactory GPCRs (Homo sapiens, UniProt P32249)
T2 construct: expressed in transfected cells; host or cells: HTLA cells

320 non-olfactory GPCRs [3] = biological target: T3, 320 non-olfactory GPCRs (Homo sapiens, UniProt P43115); conditions: receptor PTGER3; replicate values, Fig_4g
T3 construct: expressed in transfected cells; host or cells: HTLA cells

320 non-olfactory GPCRs [4] = biological target: T4, 320 non-olfactory GPCRs (Homo sapiens, UniProt P29275)
T4 construct: expressed in transfected cells; host or cells: HTLA cells
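For Fold of Basal in this document: compound tested at 1 µM final concentration.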
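For GPCRome agonism screen response in this document: fold over basal response of each receptor without drug.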

T2 sequence (P32249 whole entry): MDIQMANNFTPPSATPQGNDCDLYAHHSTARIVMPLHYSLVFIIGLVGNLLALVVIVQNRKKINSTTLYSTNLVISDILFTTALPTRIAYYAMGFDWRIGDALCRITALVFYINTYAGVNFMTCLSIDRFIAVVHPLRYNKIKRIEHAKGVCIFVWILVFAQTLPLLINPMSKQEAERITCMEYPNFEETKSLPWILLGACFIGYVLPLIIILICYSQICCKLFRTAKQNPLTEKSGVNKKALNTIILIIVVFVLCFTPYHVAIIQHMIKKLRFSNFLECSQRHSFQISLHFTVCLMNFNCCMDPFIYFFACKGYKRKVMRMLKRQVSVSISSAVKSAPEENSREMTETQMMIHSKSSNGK
T4 sequence (P29275 whole entry): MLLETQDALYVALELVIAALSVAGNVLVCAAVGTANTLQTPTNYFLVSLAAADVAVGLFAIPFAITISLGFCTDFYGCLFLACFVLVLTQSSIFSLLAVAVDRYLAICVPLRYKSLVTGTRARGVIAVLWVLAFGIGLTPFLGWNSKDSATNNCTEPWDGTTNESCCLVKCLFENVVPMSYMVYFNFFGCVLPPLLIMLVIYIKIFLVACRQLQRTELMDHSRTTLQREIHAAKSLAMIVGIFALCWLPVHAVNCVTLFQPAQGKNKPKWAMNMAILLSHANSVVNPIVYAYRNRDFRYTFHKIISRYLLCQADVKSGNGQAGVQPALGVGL
T1 sequence (P08912 whole entry): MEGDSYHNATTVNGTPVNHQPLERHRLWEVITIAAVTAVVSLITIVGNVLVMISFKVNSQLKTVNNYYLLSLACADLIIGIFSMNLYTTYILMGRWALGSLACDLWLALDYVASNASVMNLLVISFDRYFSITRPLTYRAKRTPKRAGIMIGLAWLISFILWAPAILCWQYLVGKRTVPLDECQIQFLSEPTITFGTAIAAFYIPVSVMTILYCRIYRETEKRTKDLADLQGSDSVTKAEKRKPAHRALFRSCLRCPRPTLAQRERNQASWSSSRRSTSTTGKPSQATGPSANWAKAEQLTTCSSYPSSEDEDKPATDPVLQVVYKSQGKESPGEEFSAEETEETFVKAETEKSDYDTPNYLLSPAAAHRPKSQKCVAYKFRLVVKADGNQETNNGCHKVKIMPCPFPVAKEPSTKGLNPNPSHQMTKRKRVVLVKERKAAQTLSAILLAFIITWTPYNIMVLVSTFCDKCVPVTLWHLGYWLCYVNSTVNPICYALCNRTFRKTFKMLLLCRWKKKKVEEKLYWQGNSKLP
T3 sequence (P43115 whole entry): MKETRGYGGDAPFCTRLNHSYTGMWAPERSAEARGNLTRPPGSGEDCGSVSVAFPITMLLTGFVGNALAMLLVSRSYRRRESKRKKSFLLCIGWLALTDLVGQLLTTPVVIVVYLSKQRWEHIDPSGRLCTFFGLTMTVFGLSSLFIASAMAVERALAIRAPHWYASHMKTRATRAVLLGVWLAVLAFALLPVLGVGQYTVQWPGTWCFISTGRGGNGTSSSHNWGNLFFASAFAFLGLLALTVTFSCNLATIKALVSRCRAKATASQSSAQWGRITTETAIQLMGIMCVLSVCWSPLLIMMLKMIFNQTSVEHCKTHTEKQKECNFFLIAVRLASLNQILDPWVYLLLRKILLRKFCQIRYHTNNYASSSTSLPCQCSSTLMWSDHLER

SMILES: CCOc1cccc2cc(C(C)NCC3(O)CCCCC3)oc12 (stereo not shown) [O4LE6]
- Fold of Basal (320 non-olfactory GPCRs [1]): 0.9113 and 1.052 and 0.8596 and 0.9753
- Fold of Basal (320 non-olfactory GPCRs [2]): 2.191 and 1.736 and 1.097 and 1.536
- GPCRome agonism screen response (320 non-olfactory GPCRs [3]): 0.07165 and 0.9825 and 0.5999
- Fold of Basal (320 non-olfactory GPCRs [4]): 1.3919 and 1.763 and 1.526 and 2.198
